Source: US20100130444A1, “COMPLEXES OF PROSTAGLANDIN DERIVATIVES AND MONOSUBSTITUTED, CHARGED BETA-CYCLODEXTRINS” (priority 2007, published 2010)
Converted amounts (≈) assume the structure as drawn. Values belong to the molecule of their own block, whether it stands above or below them.

Legend:
Format in all cases: physicochemical
[1] = Solubilization of latanoprost by a library of cyclodextrin derivatives (Example 1); conditions: ultra-pure water, room temperature
Procedure: A library of unsubstituted and monosubstituted cyclodextrins was screened to identify those cyclodextrin derivatives that have the highest capacity for solubilization of latanoprost. Complexation was carried out in ultra-pure water at a molar ratio of cyclodextrin derivative to latanoprost of 5:1, corresponding to concentrations of 115.58 mM and 23.12 mM for cyclodextrin derivative and latanoprost, respectively. Because of the known sensitivity of latanoprost to light, high temperature and oxidation, experiments were conducted in the dark and under a nitrogen atmosphere at room temperature. […] Non-covalent complexes formed contained the cyclodextrin derivative and latanoprost at a molar ratio of 5:1.

[2] = Solubility of prostaglandin derivatives in 50 mM cyclodextrin derivative or water (Example 2)
Text: Solubility of Latanoprost, Bimatoprost And Travoprost in 50 Mm Mono-6-desoxy-6-diaminopropyl-β-cyclodextrin, Mono-6-desoxy-6-aminopropanol-β-cyclodextrin or Water

[3] = 30-day stability of latanoprost complexed with mono-6-desoxy-6-aminopropanol-β-cyclodextrin, quantitative HPLC (Example 6, Table 5); conditions: for Degradation products of latanoprost at 30 days (% of sum of drug and deg. prod.): uncomplexed aqueous solution
Procedure: Analogous experiments were carried out to estimate the stability of latanoprost-mono-6-desoxy-6-aminopropanol-β-cyclodextrin complex.

[4] = Time to reach maximal solubility of latanoprost in cyclodextrin solution (Example 3); conditions: 115 mM mono-6-desoxy-6-diaminopropyl-β-cyclodextrin, room temperature, dark, stirred
Procedure: The minimal time period required for reaching maximal solubility of the guest molecule, i.e., latanoprost, in a solution containing 115 mM mono-6-desoxy-6-diaminopropyl-β-cyclodextrin was determined. Subsequent to addition of latanoprost, the resulting suspension was ultrasonicated for 5 min and then stirred magnetically at room temperature and in the dark for a period of 48 hours. Aliquots were removed at 0, 1, 3, 6, 12, 24 and 48 hours. Each aliquot was filtered through a 0.45 um PVDF (Millipore/Whatman) membrane, and the filtrate was diluted for quantitative analysis of latanoprost by HPLC. […] Subsequent experiments were conducted after 24 hours of equilibration.

[5] = 30-day stability of latanoprost complexed with mono-6-desoxy-6-diaminopropyl-β-cyclodextrin, HPLC-ELSD (Example 6, Table 4); conditions: for Relative area of Latanoprost (%) after 30 days: ELSD
Procedure: Latanoprost-mono-6-desoxy-6-diaminopropyl-β-cyclodextrin complex was prepared essentially as described under the previous example. Complex was dissolved in water to yield solutions (pH 6.7) containing 15 mg/ml and 7.5 mg/ml of latanoprost, respectively, or in a standard, isotonic phosphate buffer (pH 6.7) at 50 μg/ml. A control solution of 50 μg/ml latanoprost in phosphate buffer was also prepared. One-milliliter amounts of these solutions were transferred to pre-scored hermetically thermo-sealed ampoules, and the sealed ampoules were incubated at room temperature, at 37° C. or at 60° C., in the presence or absence of natural light, for a total of 30 days. Aliquots were removed periodically and were analyzed by HPLC using either a UV diode array detector (at 210 nm) or an evaporative light scattering detector (ELSD). […] Such instability had been observed previously. Morgan (2001) J. Glaucoma 10, 401-405; Yusuke Sakai (2005) Int. J. Pharmaceutics 305, 176-179. International patent publication WO 2004/024164.

[6] = dark, nitrogen, cyclodextrin derivative 115.58 mM : latanoprost 23.12 mM (5:1), 'No addition' = latanoprost alone (Exp. S0)
[7] = 50 mM mono-6-desoxy-6-aminopropanol-β-cyclodextrin solution, aqueous with cosolvent or surfactant or cyclodextrin, read-out: Solubility In 50 mM Mono-6-desoxy-6-aminopropanol-β-cyclodextrin
[8] = 50 mM mono-6-desoxy-6-diaminopropyl-β-cyclodextrin solution, aqueous with cosolvent or surfactant or cyclodextrin, read-out: Solubility In 50 mM Mono-6-desoxy-6-diaminopropyl-β-cyclodextrin
[9] = water, read-out: Solubility In Water

Molecule: 6^1-(3-hydroxy-propylamino)-6^1-deoxycyclomaltoheptaose
Mass Ratio Cyclodextrin:Latanoprost in Complex [1]: 14
Molar Ratio Cyclodextrin:Latanoprost in Complex [1]: 5
Maximal Solubility of Latanoprost [1, 6]: 10200 µg/mL

Molecule: 6^1-(3-amino-propylamino)-6^1-deoxycyclomaltoheptaose
Mass Ratio Cyclodextrin:Latanoprost in Complex [1]: 14
Molar Ratio Cyclodextrin:Latanoprost in Complex [1]: 5
Maximal Solubility of Latanoprost [1, 6]: 9570 µg/mL

Molecule: 6^1-(methylthioureido-6^1-deoxycyclomaltoheptaose
Mass Ratio Cyclodextrin:Latanoprost in Complex [1]: 106
Molar Ratio Cyclodextrin:Latanoprost in Complex [1]: 38
Maximal Solubility of Latanoprost [1, 6]: 1300 µg/mL

Molecule: CCNC(=O)CCC/C=C\C[C@@H]1[C@@H](/C=C/[C@@H](O)CCc2ccccc2)[C@H](O)C[C@@H]1O [Bimatoprost, 17-phenyl-18,19,20-trinor-PGF2α-ethylamide]
solubility [2, 7]: 10770 ± 50 µg/mL (≈ 25.9 mM)
solubility [2, 8]: 10700 ± 670 µg/mL (≈ 25.7 mM)
solubility [2, 9]: 3020 µg/mL (≈ 7.26 mM)

The next lines start with results.

Mass Ratio Cyclodextrin:Latanoprost in Complex [1]: 65
Molar Ratio Cyclodextrin:Latanoprost in Complex [1]: 25
Maximal Solubility of Latanoprost [1, 6]: 2000 µg/mL
Molecule: 3^1,6^1-anhydrocyclomaltoheptaose [Monoanhydro-β-cyclodextrin]

solubility [2, 7]: 4950 ± 20 µg/mL (≈ 9.89 mM)
solubility [2, 8]: 4940 ± 130 µg/mL (≈ 9.87 mM)
solubility [2, 9]: 32 µg/mL (≈ 0.0639 mM)
Molecule: CC(C)OC(=O)CCC/C=C\C[C@@H]1[C@@H](/C=C/[C@@H](O)COc2cccc(C(F)(F)F)c2)[C@H](O)C[C@@H]1O [Travoprost, 16-(3-trifluoromethylphenoxy)-17,18,19,20-tetranor-PGF2α-isopropylester]

solubility ([1]; dark, nitrogen, cyclodextrin derivative 115.58 mM : latanoprost 23.12 mM (5:1), 'No addition' = latanoprost alone (Exp. S0), read-out: Maximal Solubility of Latanoprost): 45 µg/mL (≈ 0.104 mM)
degradation at 25° C. (in words) ([3]; 25° C., 30 days): abundant degradation
Degradation products of latanoprost at 30 days (% of sum of drug and deg. prod.) ([3]; 25 °C, Dark): 93.4%
Degradation products of latanoprost at 30 days (% of sum of drug and deg. prod.) ([3]; 25 °C, Light): 77.9%
Degradation products of latanoprost at 30 days (% of sum of drug and deg. prod.) ([3]; 37 °C, Dark): 0%
Degradation products of latanoprost at 30 days (% of sum of drug and deg. prod.) ([3]; 37 °C, Light): 0%
Degradation products of latanoprost at 30 days (% of sum of drug and deg. prod.) ([3]; 60 °C, Dark): 0%
Degradation products of latanoprost at 30 days (% of sum of drug and deg. prod.) ([3]; 60 °C, Light): 0%
latanoprost in aqueous solution at 30 days ([3]; uncomplexed, 25 °C, Dark): 0.002 +/− 0.001 g/lt
latanoprost in aqueous solution at 30 days ([3]; uncomplexed, 25 °C, Light): 0.006 +/− 0.004 g/lt
latanoprost in aqueous solution at 30 days ([3]; uncomplexed, 37 °C, Dark): 0.051 +/− 0.001 g/lt
latanoprost in aqueous solution at 30 days ([3]; uncomplexed, 37 °C, Light): 0.061 +/− 0.003 g/lt
latanoprost in aqueous solution at 30 days ([3]; uncomplexed, 60 °C, Dark): 0.058 +/− 0.002 g/lt
latanoprost in aqueous solution at 30 days ([3]; uncomplexed, 60 °C, Light): 0.043 +/− 0.007 g/lt
latanoprost in aqueous solution at day 0 ([3]; uncomplexed, phosphate-citrate buffer pH 5.0): 0.063 +/− 0.003 g/lt
time at which solubility equilibrium was reached [4]: about 24 hours
Relative area of Latanoprost (%) after 30 days ([5]; 25 °C, Dark): 85.9%
Relative area of Latanoprost (%) after 30 days ([5]; 25 °C, Light, intact latanoprost as % of sum of latanoprost and degradation product): 76.9%
Relative area of Latanoprost (%) after 30 days ([5]; 37 °C, Dark): 100%
Relative area of Latanoprost (%) after 30 days ([5]; 37 °C, Light): 99.8%
Relative area of Latanoprost (%) after 30 days ([5]; 60 °C, Dark): 98.5%
Relative area of Latanoprost (%) after 30 days ([5]; 60 °C, Light): 94.7%
solubility [2, 7]: 5720 ± 80 µg/mL (≈ 13.2 mM)
solubility [2, 8]: 5900 ± 60 µg/mL (≈ 13.6 mM)
solubility [2, 9]: 89 µg/mL (≈ 0.206 mM)
Molecule: CC(C)OC(=O)CCC/C=C\C[C@@H]1C(CC[C@@H](O)CCc2ccccc2)[C@H](O)C[C@@H]1O (stereo partly drawn) [Latanoprost, 13,14-dihydro-17-phenyl-18,19,20-trinor-PGF2α-isopropylester]
stability over 30 days (in words) ([5]; room temperature, 37° C. or 60° C., light or dark, 30 days): exhibited instability, in particular at 25 °C

Mass Ratio Cyclodextrin:Latanoprost in Complex [1]: 59
Maximal Solubility of Latanoprost [1, 6]: 255 µg/mL
Molecule: OC[C@H]1O[C@@H]2O[C@H]3[C@H](O)[C@@H](O)[C@@H](O[C@H]4[C@H](O)[C@@H](O)[C@@H](O[C@H]5[C@H](O)[C@@H](O)[C@@H](O[C@H]6[C@H](O)[C@@H](O)[C@@H](O[C@H]7[C@H](O)[C@@H](O)[C@@H](O[C@H]8[C@H](O)[C@@H](O)[C@@H](O[C@H]1[C@H](O)[C@H]2O)O[C@@H]8CO)O[C@@H]7CO)O[C@@H]6CO)O[C@@H]5CO)O[C@@H]4CO)O[C@@H]3CO [β-Cyclodextrin, β-cyclomaltoheptaose]
